Source: patent publication EP4745135A1 (Gluetacs Therapeutics (Shanghai) Co., Ltd., priority 2023, dated 2025)

Legend:
[1] = target: T1, human Cereblon WT GST-tagged protein (Homo sapiens, UniProt Q96SW2); test: CRBN-binding affinity, HTRF (CEREBLON BINDING kit); settings: for inhibition at 0.5 µM: read-out: Inhibition Rate at 0.5 µM (%); for inhibition at 2 µM: read-out: Inhibition Rate at 2 µM (%); for IC50: CRBN binding, HTRF, 3 hours at room temperature, read-out: HTRF IC50
T1 construct: purchased CISBIO 64BDCRBNPEH

[2] = test system: Human myeloid monocytic leukemia cell (MV-4-11); test: Tumor cell proliferation inhibition (CellTiter-Meiluncell luminescent cell viability assay); settings: MV4-11, 96 h; for inhibition at 0.01 µM: read-out: Inhibition Rate at 10 nM (%); for inhibition at 0.5 µM: read-out: Inhibition Rate at 500 nM (%)
CK1α = target: T2, CK1α (Homo sapiens, UniProt P48729+Q96SW2); test: Western blot, degradation of substrate protein in hPBMCs; format: cell-based
T2 construct: effects of the compounds of the present disclosure on the expression of target proteins in cells; endogenous in cells; host or cells: human PBMCs (Milecell Biotechnologies)

IKZF1 = target: T3, IKZF1 (Homo sapiens, UniProt Q13422+Q96SW2); test: as above; format: cell-based
T3 construct: effects of the compounds of the present disclosure on the expression of target proteins in cells; endogenous in cells; host or cells: human PBMCs (Milecell Biotechnologies)

IKZF2 = target: T4, IKZF2 (Homo sapiens, UniProt Q96SW2+Q9UKS7); test: as above; format: cell-based
T4 construct: effects of the compounds of the present disclosure on the expression of target proteins in cells; endogenous in cells; host or cells: human PBMCs (Milecell Biotechnologies)

IKZF3 = target: T5, IKZF3 (Homo sapiens, UniProt Q96SW2+Q9UKT9); test: as above; format: cell-based
T5 construct: effects of the compounds of the present disclosure on the expression of target proteins in cells; endogenous in cells; host or cells: human PBMCs (Milecell Biotechnologies)

WEE1 = target: T6, WEE1 (Homo sapiens, UniProt P30291+Q96SW2); test: as above; format: cell-based
T6 construct: effects of the compounds of the present disclosure on the expression of target proteins in cells; endogenous in cells; host or cells: human PBMCs (Milecell Biotechnologies)

GSPT1 = test: as above; format: cell-based, Human
[3] = test system: Human multiple myeloma cell (MM.1S); test: Tumor cell proliferation inhibition (CellTiter-Meiluncell luminescent cell viability assay); settings: for IC50 / inhibition at 0.01 µM / inhibition at 0.5 µM: Homo sapiens, MM1.S, 96 h; for IC50: read-out: Inhibitory activity (IC50, nM) on tumor cell proliferation, MM.1S; for inhibition at 0.01 µM: read-out: Inhibition Rate at 10 nM (%); for inhibition at 0.5 µM: read-out: Inhibition Rate at 500 nM (%)
[4] = Western blot, 24 hours of compound treatment, compounds tested at 50 nM and 500 nM (concentration for the table not stated)
[5] = 24 hours treatment, compounds at 50 nM and 500 nM (concentration behind the class not stated)

T3 sequence (Q13422 whole entry): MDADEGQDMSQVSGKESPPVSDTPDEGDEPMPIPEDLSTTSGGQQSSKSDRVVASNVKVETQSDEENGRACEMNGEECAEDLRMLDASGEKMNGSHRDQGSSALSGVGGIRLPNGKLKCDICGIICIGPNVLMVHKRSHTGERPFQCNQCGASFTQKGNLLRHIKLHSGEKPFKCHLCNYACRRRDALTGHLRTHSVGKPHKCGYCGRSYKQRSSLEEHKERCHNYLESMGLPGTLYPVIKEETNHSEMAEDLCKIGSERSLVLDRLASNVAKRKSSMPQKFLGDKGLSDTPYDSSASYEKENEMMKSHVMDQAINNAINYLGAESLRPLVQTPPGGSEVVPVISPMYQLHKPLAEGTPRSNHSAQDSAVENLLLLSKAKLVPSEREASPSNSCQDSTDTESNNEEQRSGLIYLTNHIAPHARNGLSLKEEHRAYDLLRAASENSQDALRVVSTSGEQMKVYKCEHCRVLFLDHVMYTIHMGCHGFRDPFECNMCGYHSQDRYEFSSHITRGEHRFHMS
T3 sequence (Q96SW2 whole entry): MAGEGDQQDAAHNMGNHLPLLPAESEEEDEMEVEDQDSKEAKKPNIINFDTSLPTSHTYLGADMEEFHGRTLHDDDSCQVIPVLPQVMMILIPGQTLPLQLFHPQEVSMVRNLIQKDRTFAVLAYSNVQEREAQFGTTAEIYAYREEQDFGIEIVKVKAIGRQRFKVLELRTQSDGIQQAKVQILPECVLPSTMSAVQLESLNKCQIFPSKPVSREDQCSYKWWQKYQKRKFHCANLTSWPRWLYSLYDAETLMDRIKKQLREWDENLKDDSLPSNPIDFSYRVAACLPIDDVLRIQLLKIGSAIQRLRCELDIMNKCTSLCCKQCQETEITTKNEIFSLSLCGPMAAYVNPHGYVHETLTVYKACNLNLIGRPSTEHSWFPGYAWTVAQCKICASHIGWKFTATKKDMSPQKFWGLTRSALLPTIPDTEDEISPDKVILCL
T3 sequence (Q16531 whole entry partner): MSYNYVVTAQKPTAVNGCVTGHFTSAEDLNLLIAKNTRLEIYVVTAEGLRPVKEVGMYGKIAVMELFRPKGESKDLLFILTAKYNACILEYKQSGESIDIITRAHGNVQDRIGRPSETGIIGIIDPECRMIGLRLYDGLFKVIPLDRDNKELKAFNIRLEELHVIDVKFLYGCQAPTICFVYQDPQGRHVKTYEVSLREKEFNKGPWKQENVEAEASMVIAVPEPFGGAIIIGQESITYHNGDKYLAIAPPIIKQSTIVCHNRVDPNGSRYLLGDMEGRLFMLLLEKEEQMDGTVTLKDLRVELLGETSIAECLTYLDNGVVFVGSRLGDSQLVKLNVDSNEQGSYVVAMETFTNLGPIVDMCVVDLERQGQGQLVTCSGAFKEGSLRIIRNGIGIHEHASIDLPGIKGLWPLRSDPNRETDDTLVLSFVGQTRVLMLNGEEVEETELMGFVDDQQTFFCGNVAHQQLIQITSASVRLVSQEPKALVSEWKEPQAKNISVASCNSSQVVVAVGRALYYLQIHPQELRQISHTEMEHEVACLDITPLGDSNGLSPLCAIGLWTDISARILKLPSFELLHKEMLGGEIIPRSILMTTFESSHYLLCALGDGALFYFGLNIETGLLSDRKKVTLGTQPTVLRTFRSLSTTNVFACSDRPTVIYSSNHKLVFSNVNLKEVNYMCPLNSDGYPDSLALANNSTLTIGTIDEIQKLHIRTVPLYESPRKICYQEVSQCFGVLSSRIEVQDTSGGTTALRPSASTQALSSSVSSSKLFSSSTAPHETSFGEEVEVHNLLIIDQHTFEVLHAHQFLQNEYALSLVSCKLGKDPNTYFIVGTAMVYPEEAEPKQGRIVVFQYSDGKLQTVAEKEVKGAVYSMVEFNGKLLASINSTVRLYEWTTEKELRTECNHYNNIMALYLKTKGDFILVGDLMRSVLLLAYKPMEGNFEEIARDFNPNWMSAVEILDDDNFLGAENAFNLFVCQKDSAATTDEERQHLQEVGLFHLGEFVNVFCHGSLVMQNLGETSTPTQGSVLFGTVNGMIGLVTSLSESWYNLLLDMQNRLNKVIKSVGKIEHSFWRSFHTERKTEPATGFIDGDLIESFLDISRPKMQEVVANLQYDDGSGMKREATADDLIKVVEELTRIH
T2 sequence (P48729 whole entry): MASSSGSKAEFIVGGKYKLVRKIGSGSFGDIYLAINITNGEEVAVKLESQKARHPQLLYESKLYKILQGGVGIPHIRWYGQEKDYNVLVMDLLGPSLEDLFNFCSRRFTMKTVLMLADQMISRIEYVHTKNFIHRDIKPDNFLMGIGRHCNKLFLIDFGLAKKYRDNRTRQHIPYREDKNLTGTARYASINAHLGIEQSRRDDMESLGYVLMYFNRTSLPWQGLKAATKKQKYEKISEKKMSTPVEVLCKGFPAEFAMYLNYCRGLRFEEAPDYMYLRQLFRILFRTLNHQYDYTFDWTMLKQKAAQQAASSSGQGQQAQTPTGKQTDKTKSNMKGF
T2 sequence (Q96SW2 whole entry): as the sequence (Q96SW2 whole entry) above
T2 sequence (Q16531 whole entry partner): as the sequence (Q16531 whole entry partner) above
T5 sequence (Q9UKT9 whole entry): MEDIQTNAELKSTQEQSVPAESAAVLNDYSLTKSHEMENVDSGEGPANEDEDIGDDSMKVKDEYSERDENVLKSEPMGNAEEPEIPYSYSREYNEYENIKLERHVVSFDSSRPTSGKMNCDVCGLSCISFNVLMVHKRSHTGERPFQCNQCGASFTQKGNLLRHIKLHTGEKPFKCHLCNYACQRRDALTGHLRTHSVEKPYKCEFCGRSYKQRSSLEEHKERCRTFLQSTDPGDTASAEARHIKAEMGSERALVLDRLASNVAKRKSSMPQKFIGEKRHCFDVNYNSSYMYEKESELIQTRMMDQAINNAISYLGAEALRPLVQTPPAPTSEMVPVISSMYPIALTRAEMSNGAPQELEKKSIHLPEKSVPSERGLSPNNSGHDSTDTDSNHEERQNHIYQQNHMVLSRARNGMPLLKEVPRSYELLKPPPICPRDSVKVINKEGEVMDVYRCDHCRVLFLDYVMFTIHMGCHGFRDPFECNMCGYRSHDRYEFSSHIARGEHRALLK
T5 sequence (Q96SW2 whole entry): as the sequence (Q96SW2 whole entry) above
T5 sequence (Q16531 whole entry partner): as the sequence (Q16531 whole entry partner) above
T6 sequence (P30291 whole entry): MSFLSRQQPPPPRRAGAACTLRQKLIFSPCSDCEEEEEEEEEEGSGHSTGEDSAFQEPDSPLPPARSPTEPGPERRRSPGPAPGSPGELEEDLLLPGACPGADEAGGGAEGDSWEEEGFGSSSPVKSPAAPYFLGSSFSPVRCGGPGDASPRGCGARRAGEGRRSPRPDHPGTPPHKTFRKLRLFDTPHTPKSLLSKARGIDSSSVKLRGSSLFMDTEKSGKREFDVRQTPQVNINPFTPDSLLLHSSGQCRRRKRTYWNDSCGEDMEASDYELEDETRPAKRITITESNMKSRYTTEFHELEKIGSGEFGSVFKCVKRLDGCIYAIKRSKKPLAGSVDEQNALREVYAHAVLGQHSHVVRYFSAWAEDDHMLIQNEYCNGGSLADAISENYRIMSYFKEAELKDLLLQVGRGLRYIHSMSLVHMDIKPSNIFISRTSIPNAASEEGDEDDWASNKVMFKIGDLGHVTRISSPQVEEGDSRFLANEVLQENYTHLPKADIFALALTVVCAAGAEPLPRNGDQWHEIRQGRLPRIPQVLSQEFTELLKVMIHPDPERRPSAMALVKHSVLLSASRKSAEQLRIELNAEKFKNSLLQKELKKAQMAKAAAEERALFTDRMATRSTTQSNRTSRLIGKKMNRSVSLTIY
T6 sequence (Q96SW2 whole entry): as the sequence (Q96SW2 whole entry) above
T6 sequence (Q16531 whole entry partner): as the sequence (Q16531 whole entry partner) above
T1 sequence (Q96SW2 whole entry): as the sequence (Q96SW2 whole entry) above
T4 sequence (Q9UKS7 whole entry): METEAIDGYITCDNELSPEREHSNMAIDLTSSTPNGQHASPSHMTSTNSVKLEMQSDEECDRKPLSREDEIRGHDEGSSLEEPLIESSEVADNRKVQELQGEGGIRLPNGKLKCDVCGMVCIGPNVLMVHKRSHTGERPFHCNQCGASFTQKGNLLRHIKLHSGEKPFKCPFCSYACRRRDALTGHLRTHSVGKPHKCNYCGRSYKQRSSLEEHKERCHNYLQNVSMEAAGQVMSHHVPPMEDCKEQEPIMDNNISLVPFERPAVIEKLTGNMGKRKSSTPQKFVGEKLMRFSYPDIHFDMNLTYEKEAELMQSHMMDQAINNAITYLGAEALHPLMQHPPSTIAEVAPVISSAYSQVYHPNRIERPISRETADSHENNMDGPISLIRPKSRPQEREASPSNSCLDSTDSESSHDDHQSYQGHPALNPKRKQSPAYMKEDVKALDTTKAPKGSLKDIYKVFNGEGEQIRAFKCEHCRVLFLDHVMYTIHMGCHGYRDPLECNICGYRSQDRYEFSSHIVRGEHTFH
T4 sequence (Q96SW2 whole entry): as the sequence (Q96SW2 whole entry) above
T4 sequence (Q16531 whole entry partner): as the sequence (Q16531 whole entry partner) above

Row | inhibition at 0.5 µM [1] [%] | inhibition at 2 µM [1] [%] | IC50 [1] [nM] | Compound | inhibition at 0.01 µM [2] [%] | inhibition at 0.5 µM [2] [%] | CK1α substrate protein remaining % (CK1α; [4]) | IKZF 1 substrate protein remaining % (IKZF1; [4]) | IKZF2 substrate protein remaining % (IKZF2; [4]) | IKZF3 substrate protein remaining % (IKZF3; [4]) | Wee1 substrate protein remaining % (WEE1; [4]) | GSPT1 substrate protein remaining % (GSPT1; [4]) | inhibition at 0.01 µM [3] [%] | further results
1 | 60 to 80 | 80 to 100 | – | O=C1CCC(N2Cc3cc(CN4CCN(c5ccnc(F)c5F)CC4)ccc3C2=S)C(=O)N1 (stereo not drawn) [GT-09242, 3-(5-((4-(2,3-difluoropyridin-4-yl)piperazin-1-yl)methyl)-1-thioxoisoindolin-2-yl)piperidine-2,6-dione] | 60 to 80 | 30 to 40 | – | – | – | – | – | – | – | –
2 | 60 to 80 | 80 to 100 | – | O=C1CCC(N2Cc3cc(CN4CCN(c5cccnc5)CC4)ccc3C2=S)C(=O)N1 (stereo not drawn) [GT-09229, 3-(5-((4-(pyridin-3-yl)piperazin-1-yl)methyl)-1-thioxoisoindolin-2-yl)piperidine-2,6-dione] | 40 to 60 | 40 to 60 | – | – | – | – | – | – | – | –
3 | 60 to 80 | 80 to 100 | – | O=C1CCC(N2Cc3cc(CN4CCC(c5ccnc(F)c5F)CC4)ccc3C2=S)C(=O)N1 (stereo not drawn) [GT-08473, 3-(5-((4-(2,3-difluoropyridin-4-yl)piperidin-1-yl)methyl)-1-thioxoisoindolin-2-yl)piperidine-2,6-dione] | 40 to 60 | 40 to 60 | – | – | – | – | – | – | – | –
4 | 80 to 100 | 80 to 100 | – | Cc1csc2ncnc(N3CCN(Cc4ccc5c(c4)CN(C4CCC(=O)NC4=O)C5=S)CC3)c12 (stereo not drawn) [GT-09281, 3-(5-((4-(5-methylthieno[2,3-d]pyrimidin-4-yl)piperazin-1-yl)methyl)-1-thioxoisoindolin-2-yl)piperidine-2,6-dione] | 25 to 30 | 40 to 60 | – | – | – | – | – | – | – | –
5 | 30 to 40 | 60 to 80 | – | CC1(C)CCC(CN2CCN(Cc3cccc4c3CN(C3CCC(=O)NC3=O)C4=S)CC2)=C(c2ccc(Cl)cc2)C1 (stereo not drawn) [GT-08303, 3-(4-((4-((4'-chloro-5,5-dimethyl-3,4,5,6-tetrahydro-[1,1'-biphenyl]-2-yl)methyl)piperazin-1-yl)methyl)-1-thioxoisoindolin-2-yl)piperidine-2,6-dione] | 40 to 60 | 40 to 60 | – | – | – | – | – | – | – | –
6 | 30 to 40 | 60 to 80 | – | O=C1CCC(N2Cc3c(CN4C[C@H]5C[C@@H]4CN5c4cccc(Cl)c4Cl)cccc3C2=S)C(=O)N1 (stereo in doubt) [GT-08467, 3-(4-(((1R,4R)-5-(2,3-dichlorophenyl)-2,5-diazabicyclo[2.2.1]heptan-2-yl)methyl)-1-thioxoisoindolin-2-yl)piperidine-2,6-dione] | – | – | B (80%< substrate protein remaining %≤ 100%) | B (80%< substrate protein remaining %≤ 100%) | A (0% ≤ substrate protein remaining % ≤ 80%) | B (80%< substrate protein remaining %≤ 100%) | B (80%< substrate protein remaining %≤ 100%) | A (0% ≤ substrate protein remaining % ≤ 80%) | 10 to 20 | Inhibition Rate at 500 nM (%) ([3]; MM.1S, 96 hours): la7
7 | – | – | 100 to 500 | O=C1CCC(N2Cc3cc(CN4C[C@@H]5C[C@H]4CN5c4cccc(Cl)c4Cl)ccc3C2=S)C(=O)N1 (stereo partly drawn) [GT-05183, 3-(5-(((1S,4S)-5-(2,3-dichlorophenyl)-2,5-diazabicyclo[2.2.1]heptan-2-yl)methyl)-1-thioxoisoindolin-2-yl)piperidine-2,6-dione] | – | – | B (80%< substrate protein remaining %≤ 100%) | B (80%< substrate protein remaining %≤ 100%) | B (80%< substrate protein remaining %≤ 100%) | A (0% ≤ substrate protein remaining % ≤ 80%) | B (80%< substrate protein remaining %≤ 100%) | A (0% ≤ substrate protein remaining % ≤ 80%) | – | IC50 [3]: 50 to 100 nM
8 | – | – | 100 to 500 | Cc1cscc1C1CCN(Cc2ccc3c(c2)CN(C2CCC(=O)NC2=O)C3=S)CC1 (stereo not drawn) [GT-05146, 3-(5-((4-(4-methylthiophen-3-yl)piperidin-1-yl)methyl)-1-thioxoisoindolin-2-yl)piperidine-2,6-dione] | – | – | B (80%< substrate protein remaining %≤ 100%) | A (0% ≤ substrate protein remaining % ≤ 80%) | B (80%< substrate protein remaining %≤ 100%) | B (80%< substrate protein remaining %≤ 100%) | A (0% ≤ substrate protein remaining % ≤ 80%) | A (0% ≤ substrate protein remaining % ≤ 80%) | – | IC50 [3]: 100 to 500 nM
9 | – | – | < 100 | O=C1CC[C@H](N2Cc3c(OCc4ccc(CN5CCOCC5)cc4)cccc3C2=S)C(=O)N1 [GT-05712, (S)-3-(4-((4-(morpholinomethyl)benzyl)oxy)-1-thioxoisoindolin-2-yl)piperidine-2,6-dione] | – | – | – | – | – | – | – | – | 50 to 60 | CK1α substrate protein remaining % (CK1α; [5]): B (80%< substrate protein remaining %≤ 100%); IKZF 1 substrate protein remaining % (IKZF1; [5]): A (0% ≤ substrate protein remaining % ≤ 80%); IKZF2 substrate protein remaining % (IKZF2; [5]): B (80%< substrate protein remaining %≤ 100%); IKZF3 substrate protein remaining % (IKZF3; [5]): A (0% ≤ substrate protein remaining % ≤ 80%); Wee1 substrate protein remaining % (WEE1; [5]): B (80%< substrate protein remaining %≤ 100%); GSPT1 substrate protein remaining % (GSPT1; [5]): A (0% ≤ substrate protein remaining % ≤ 80%); inhibition at 0.5 µM [3]: 70 to 80%
10 | 53 to 60 | 80 to 100 | – | O=C1CCC(N2Cc3cc(CN4C[C@H]5C[C@@H]4CN5c4cccc(Cl)c4Cl)ccc3C2=S)C(=O)N1 (stereo partly drawn) [GT-08477, 3-(5-(((1R,4R)-5-(2,3-dichlorophenyl)-2,5-diazabicyclo[2.2.1]heptan-2-yl)methyl)-1-thioxoisoindolin-2-yl)piperidine-2,6-dione] | – | – | B (80%< substrate protein remaining %≤ 100%) | B (80%< substrate protein remaining %≤ 100%) | B (80%< substrate protein remaining %≤ 100%) | A (0% ≤ substrate protein remaining % ≤ 80%) | B (80%< substrate protein remaining %≤ 100%) | A (0% ≤ substrate protein remaining % ≤ 80%) | – | inhibition at 0.5 µM [3]: 40 to 50%; Inhibition Rate at 10 nM (%) ([3]; MM.1S, 10 nM, 96 hours): la5

Row | Compound | inhibition at 0.5 µM [1] [%] | inhibition at 2 µM [1] [%] | IC50 [1] [nM] | inhibition at 0.01 µM [2] [%] | inhibition at 0.5 µM [2] [%] | CK1α substrate protein remaining % (CK1α; [4]) | IKZF 1 substrate protein remaining % (IKZF1; [4]) | IKZF2 substrate protein remaining % (IKZF2; [4]) | IKZF3 substrate protein remaining % (IKZF3; [4]) | Wee1 substrate protein remaining % (WEE1; [4]) | GSPT1 substrate protein remaining % (GSPT1; [4]) | inhibition at 0.01 µM [3] [%] | further results
11 | O=C1CCC(N2Cc3cc(CN4CC=C(c5c[nH]c6ncccc56)CC4)ccc3C2=S)C(=O)N1 (stereo not drawn) [GT-05248, 3-(5-((4-(1H-pyrrolo[2,3-b]pyridin-3-yl)-3,6-dihydropyridin-1(2H)-yl)methyl)-1-thioxoisoindolin-2-yl)piperidine-2,6-dione] | – | – | < 100 | – | – | B (80%< substrate protein remaining %≤ 100%) | A (0% ≤ substrate protein remaining % ≤ 80%) | A (0% ≤ substrate protein remaining % ≤ 80%) | A (0% ≤ substrate protein remaining % ≤ 80%) | A (0% ≤ substrate protein remaining % ≤ 80%) | A (0% ≤ substrate protein remaining % ≤ 80%) | – | IC50 [3]: 50 to 100 nM
12 | O=C1CCC(N2Cc3c(CN4C5CC4CN(c4cccc(Cl)c4Cl)C5)cccc3C2=S)C(=O)N1 (stereo not drawn) [GT-08465, 3-(4-((3-(2,3-dichlorophenyl)-3,6-diazabicyclo[3.1.1]heptan-6-yl)methyl)-1-thioxoisoindolin-2-yl)piperidine-2,6-dione] | 40 to 53 | 60 to 80 | – | – | – | B (80%< substrate protein remaining %≤ 100%) | B (80%< substrate protein remaining %≤ 100%) | B (80%< substrate protein remaining %≤ 100%) | B (80%< substrate protein remaining %≤ 100%) | B (80%< substrate protein remaining %≤ 100%) | A (0% ≤ substrate protein remaining % ≤ 80%) | 40 to 50 | Inhibition Rate at 500 nM (%) ([3]; MM.1S, 96 hours): la5
13 | O=C1CCC(N2Cc3c(CN4CC=C(c5ncccc5F)CC4)cccc3C2=S)C(=O)N1 (stereo not drawn) [GT-08463, 3-(4-((3-fluoro-3',6'-dihydro-[2,4'-bipyridin]-1'(2'H)-yl)methyl)-1-thioxoisoindolin-2-yl)piperidine-2,6-dione] | 53 to 60 | 60 to 80 | – | – | – | B (80%< substrate protein remaining %≤ 100%) | B (80%< substrate protein remaining %≤ 100%) | B (80%< substrate protein remaining %≤ 100%) | B (80%< substrate protein remaining %≤ 100%) | A (0% ≤ substrate protein remaining % ≤ 80%) | A (0% ≤ substrate protein remaining % ≤ 80%) | 40 to 50 | Inhibition Rate at 500 nM (%) ([3]; MM.1S, 96 hours): la5
